Results: ChEMBL document CHEMBL1201862, “PubChem BioAssay data set” (2004)
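Dose response: 5 concentrations. Exposure: 48 h. Format: 96-well plates. Endpoint: linear interpolation; highest concentration if not reached. GI50 is the concentration that inhibits growth by half.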 Active and inactive are the calls of the source. Cut-off read from the data, not from the text of the source: active = GI50 up to about 1.1 µM and inactive = higher.

How the values were obtained:
Experiment in all cases: NCI tumour cell line growth inhibition, 48 h
[1] = test system: 786-0
[2] = test system: EKVX
[3] = test system: Hs-578T
[4] = test system: IGROV-1
[5] = test system: KM12
[6] = test system: M14
[7] = test system: NCI-H226
[8] = test system: NCI-H460
[9] = test system: NCI-H522
[10] = test system: NCI/ADR-RES
[11] = test system: PC-3
[12] = test system: SF-268
[13] = test system: SF-295
[14] = test system: SK-MEL-28
[15] = test system: SK-MEL-2
[16] = test system: SN12C
[17] = test system: SNB-19
[18] = test system: TK-10
[19] = test system: UACC-257
[20] = test system: UACC-62

Structure (SMILES) | GI50 [1] | GI50 [2] | GI50 [3] | GI50 [4] | GI50 [5] | GI50 [6] | GI50 [7] | GI50 [8] | GI50 [9] | GI50 [10] | GI50 [11] | GI50 [12] | GI50 [13] | GI50 [14] | GI50 [15] | GI50 [16] | GI50 [17] | GI50 [18] | GI50 [19] | GI50 [20]
O=C(CCN1CCCCC1)Nc1ccc2c(c1)C(=O)c1ccc(NC(=O)CCN3CCCCC3)cc1C2=O | 1.61 µM (inactive) | 15.6 µM (inactive) | 11.7 µM (inactive) | 3.61 µM (inactive) | 1.62 µM (inactive) | 5.73 µM (inactive) | 15.6 µM (inactive) | 1.57 µM (inactive) | 16.9 µM (inactive) | 10.9 µM (inactive) | 2.26 µM (inactive) | 7.96 µM (inactive) | 5.22 µM (inactive) | 17.5 µM (inactive) | 5.16 µM (inactive) | 5.81 µM (inactive) | 4.48 µM (inactive) | 8.34 µM (inactive) | 16.3 µM (inactive) | 19.9 µM (inactive)
CCOC(=O)C(C(=S)Nc1ccccc1)c1nn2c(=O)cc(C)nc2s1 (stereo unspecified) | 39.8 µM (inactive) | 21.6 µM (inactive) | 41 µM (inactive) | 36.7 µM (inactive) | 25.4 µM (inactive) | 22.9 µM (inactive) | 21.7 µM (inactive) | 31.6 µM (inactive) | 22.3 µM (inactive) | 26.7 µM (inactive) | 24.8 µM (inactive) | 28.8 µM (inactive) | 32.4 µM (inactive) | 21.1 µM (inactive) | 36.2 µM (inactive) | 36.7 µM (inactive) | 35.6 µM (inactive) | 29.7 µM (inactive) | 22.7 µM (inactive) | 23.7 µM (inactive)
COc1ccc(-c2coc3c4c(ccc3c2=O)OCO4)cc1OC | 35.4 µM (inactive) | 38.5 µM (inactive) | 26.4 µM (inactive) | 44.4 µM (inactive) | 83.6 µM (inactive) | > 100 µM (inactive) | 76.7 µM (inactive) | 57.8 µM (inactive) | 56.9 µM (inactive) | 35.8 µM (inactive) | > 100 µM (inactive) | 34 µM (inactive) | 27.9 µM (inactive) | > 100 µM (inactive) | 65.3 µM (inactive) | > 100 µM (inactive) | 29 µM (inactive) | 63 µM (inactive) | > 100 µM (inactive) | 44.9 µM (inactive)
CCOC(=O)N1CCC2(CC1)C[C@@](C(C)=O)(c1ccccc1)C(C)O2 (stereo partly specified) | > 100 µM (inactive) | > 100 µM (inactive) | > 100 µM (inactive) | > 100 µM (inactive) | > 100 µM (inactive) | > 100 µM (inactive) | > 100 µM (inactive) | > 100 µM (inactive) | > 100 µM (inactive) | > 100 µM (inactive) | > 100 µM (inactive) | > 100 µM (inactive) | > 100 µM (inactive) | > 100 µM (inactive) | > 100 µM (inactive) |  | > 100 µM (inactive) | > 100 µM (inactive) | > 100 µM (inactive) | 56 µM (inactive)
O=C1CC(NC2CC(=O)c3c(Br)sc(Br)c32)c2c(Br)sc(Br)c21 (stereo unspecified) | 1.51 µM (inactive) | 3 µM (inactive) | 4.91 µM (inactive) | 2.99 µM (inactive) | 1.99 µM (inactive) | 5.58 µM (inactive) | 17.4 µM (inactive) | 18 µM (inactive) | 1.81 µM (inactive) | 13.9 µM (inactive) | 2.48 µM (inactive) | 11.7 µM (inactive) | 13.6 µM (inactive) | 7.85 µM (inactive) | 3.51 µM (inactive) | 1.56 µM (inactive) | 14.9 µM (inactive) | 2.88 µM (inactive) | 2.03 µM (inactive) | 11.9 µM (inactive)
COc1cc(C2SCC(=O)N2c2ccc(Cl)cc2)cc(I)c1O (stereo unspecified) | > 100 µM (inactive) | 8.13 µM (inactive) | 97.1 µM (inactive) | > 100 µM (inactive) | 7.01 µM (inactive) | 4.86 µM (inactive) | > 90.2 µM (inactive) | 2.74 µM (inactive) | 55.8 µM (inactive) | > 69 µM (inactive) | > 100 µM (inactive) | > 86.7 µM (inactive) | 4.72 µM (inactive) | 22 µM (inactive) | 23.9 µM (inactive) | > 100 µM (inactive) | > 100 µM (inactive) | > 94.6 µM (inactive) | 11.8 µM (inactive) | 0.305 µM (active)
Cc1ccc(/N=C2N=C(Cl)/C(=C\c3ccco3)N\2)cc1 | > 100 µM (inactive) | > 100 µM (inactive) | > 100 µM (inactive) | > 100 µM (inactive) | > 100 µM (inactive) | > 100 µM (inactive) | > 100 µM (inactive) | > 100 µM (inactive) | > 100 µM (inactive) | > 100 µM (inactive) | > 100 µM (inactive) | > 100 µM (inactive) | > 100 µM (inactive) | > 100 µM (inactive) | > 100 µM (inactive) | > 100 µM (inactive) | > 100 µM (inactive) | > 100 µM (inactive) | > 100 µM (inactive) | > 100 µM (inactive)
O=C(/C(=C\I)c1ccccc1)c1ccccc1 | 3.52 µM (inactive) | 18.3 µM (inactive) | 3.75 µM (inactive) | 10.8 µM (inactive) | 2.71 µM (inactive) | 15 µM (inactive) | 24.6 µM (inactive) | 10.9 µM (inactive) | 4.86 µM (inactive) | 19.4 µM (inactive) | 2.71 µM (inactive) | 13.9 µM (inactive) | 16.9 µM (inactive) | 2.16 µM (inactive) | 7.8 µM (inactive) | 18 µM (inactive) | 8.95 µM (inactive) | 16 µM (inactive) | 4.55 µM (inactive) | 3.26 µM (inactive)
CNc1ccccc1S(=O)(=O)c1ccccc1[N+](=O)[O-] | > 100 µM (inactive) | > 100 µM (inactive) | 40.2 µM (inactive) | > 100 µM (inactive) | > 100 µM (inactive) | 52.7 µM (inactive) | 65.6 µM (inactive) | 58.7 µM (inactive) | 26 µM (inactive) | 45.5 µM (inactive) | 52.4 µM (inactive) | > 100 µM (inactive) | 80.2 µM (inactive) | 91 µM (inactive) | 88.3 µM (inactive) | 92.7 µM (inactive) | 74 µM (inactive) | > 100 µM (inactive) |  | 48.8 µM (inactive)
CCCC(=O)OCC1OC(n2cc(F)c(=O)[nH]c2=O)C(F)C1O (stereo unspecified) | 30.6 µM (inactive) | > 71.4 µM (inactive) | 99.3 µM (inactive) | > 76.7 µM (inactive) | > 100 µM (inactive) | 18.8 µM (inactive) | 99.3 µM (inactive) | 2.86 µM (inactive) | > 75 µM (inactive) | 53.3 µM (inactive) | > 100 µM (inactive) | > 26.4 µM (inactive) | > 27.5 µM (inactive) | > 100 µM (inactive) | > 100 µM (inactive) | > 82.8 µM (inactive) | 78.5 µM (inactive) | > 100 µM (inactive) | > 59.7 µM (inactive) | > 31.5 µM (inactive)
O=C1C(Cl)C2(CC(/C=C/c3ccccc3O)=NN2c2cccc(S(=O)(=O)O)c2)N1c1nc2ccccc2s1 (stereo unspecified) | 15.6 µM (inactive) | 18.6 µM (inactive) | 23.9 µM (inactive) | 14.9 µM (inactive) | 14.8 µM (inactive) | 18.3 µM (inactive) | 18.9 µM (inactive) | 15.1 µM (inactive) | 3.57 µM (inactive) | 36.1 µM (inactive) | 24.8 µM (inactive) | 16 µM (inactive) |  | 24.2 µM (inactive) | 16.8 µM (inactive) | 14.2 µM (inactive) | 30.8 µM (inactive) | 12.3 µM (inactive) | 16.1 µM (inactive) | 15.2 µM (inactive)
Cn1c2ccccc2n2c3ccccc3c(=S)c(C#N)c12 | 92.3 µM (inactive) | > 100 µM (inactive) | > 100 µM (inactive) | > 100 µM (inactive) | > 100 µM (inactive) | > 100 µM (inactive) | > 100 µM (inactive) | > 100 µM (inactive) | > 100 µM (inactive) | > 100 µM (inactive) | > 100 µM (inactive) | > 100 µM (inactive) | > 100 µM (inactive) | > 100 µM (inactive) | > 100 µM (inactive) |  | > 100 µM (inactive) | > 100 µM (inactive) | > 100 µM (inactive) | > 100 µM (inactive)
CC(NNC(=O)c1cc[n+]([BH2-]C#N)cc1)C(F)(F)F (stereo unspecified) | > 100 µM (inactive) | > 100 µM (inactive) | > 100 µM (inactive) | > 100 µM (inactive) | > 100 µM (inactive) | > 100 µM (inactive) | > 100 µM (inactive) | > 100 µM (inactive) | > 100 µM (inactive) | > 100 µM (inactive) | > 100 µM (inactive) | > 100 µM (inactive) | > 100 µM (inactive) | > 100 µM (inactive) | > 100 µM (inactive) | > 100 µM (inactive) | > 100 µM (inactive) | > 100 µM (inactive) | > 100 µM (inactive) | > 100 µM (inactive)
CC1(C)CC[C@]2(C(=O)O)CC[C@]3(C)C(=CC[C@@H]4[C@@]5(C)C[C@H](O)[C@H](O)[C@@](C)(C(=O)O)[C@@H]5CC[C@]43C)[C@@H]2C1 | > 100 µM (inactive) | > 100 µM (inactive) | > 100 µM (inactive) | > 89.3 µM (inactive) | > 79.1 µM (inactive) | > 100 µM (inactive) | > 90.8 µM (inactive) | > 100 µM (inactive) | > 100 µM (inactive) | > 100 µM (inactive) | > 100 µM (inactive) | > 100 µM (inactive) | > 100 µM (inactive) | > 100 µM (inactive) | > 100 µM (inactive) | > 100 µM (inactive) | > 100 µM (inactive) | > 100 µM (inactive) | > 100 µM (inactive) | > 54.6 µM (inactive)
